In patent US9512144B2, “Imidazothiazole sufonamides as nematicides” (BAYER CROPSCIENCE AKTIENGESELLSCHAFT, priority 2013, dated 2016):

Experiments:
Format in all cases: in vivo
Meloidogyne incognita [1] = test: Meloidogyne incognita test (MELGIN): sand, salad seeds, gall formation after 14 days; details: application rate 20 ppm, salad seedlings in sand
Protocol: Solvent: 125.0 parts by weight of acetone To produce a suitable preparation of active compound, 1 part by weight of active compound is mixed with the stated amount of solvent, and the concentrate is diluted with water to the desired concentration. Vessels are filled with sand, a solution of the active ingredient, a suspension containing eggs and larvae of the southern root-knot nematode (Meloidogyne incognita) and salad seeds. The salad seeds germinate and the seedlings grow. Galls develop in the roots. After 14 days the nematicidal activity is determined on the basis of the percentage of gall formation. 100% means that no galls were found; 0% means that the number of galls found on the roots of the treated plants was equal to that in untreated control plants.

Meloidogyne incognita [2] = test: Meloidogyne incognita spray test (MELGIN): leaves of salad and tomato plants sprayed, gall formation 24 days after spraying
Protocol: Solvent: 7 parts by weight of dimethylformamide Emulsifier: alkylaryl polyglycol ether To produce a suitable preparation of active compound, 1 part by weight of active compound is mixed with the stated amount of solvent and is diluted with water, containing an emulsifier concentration of 1000 ppm, to the desired concentration. Further test concentrations are prepared by dilution with emulsifier containing water. Ammonium sulfate and rape oil methyl ester (RME) in a dosage of 1000 ppm are added to the desired concentration. Salad and tomato plants are treated by being sprayed on the leaves with the preparation of the active compound of the desired concentration, the soil surface is covered by a protection film. 3 days after spraying, a suspension containing eggs and larvae of the southern root-knot nematode (Meloidogyne incognita) is added on the soil surface. Galls develop on the roots. 24 days after spraying, the nematicidal activity is determined on the basis of the percentage of gall formation. 100% means no galls were found; 0% means the number of galls found on the roots of the treated plants was equal to that in untreated control plants. […] Test plant: Tomato, Lycopersicon esculentum Test plant: Salad, Lactuca sativa

Meloidogyne incognita [3] = test: Meloidogyne incognita test: compound solution poured into pots with soil (loamy sand), salad seeds, gall formation after 21 days; details: salad in soil
Protocol: Solvent: 7 parts by weight of dimethylformamide Emulsifier: 2.5 parts by weight of alkylarylpolyglycolether To produce a suitable preparation of active compound, 1 part by weight of active compound is mixed with the stated amount of solvent and emulsifier and is diluted with water to the desired concentration. In the calculation of the concentration the soil volume has to be included. […] Further test concentrations are prepared by dilution with water. The compound solution is poured into pots filled with soil (loamy sand). A suspension containing eggs and larvae of the southern root-knot nematode (Meloidogyne incognita) is added, salad seeds are spread on the soil surface and covered with quartz sand. The salad seeds germinate and the seedlings grow. Galls develop on the roots. After 21 days the nematicidal activity is determined on the basis of the percentage of gall formation. 100% means no galls were found; 0% means the number of galls found on the roots of the treated plants was equal to that in untreated control plants.

[4] = test plant Salad, Lactuca sativa, leaf spray 100 ppm
[5] = test plant Salad, Lactuca sativa, leaf spray 1000 ppm
[6] = test plant Salad, Lactuca sativa, leaf spray 2500 ppm
[7] = test plant Tomato, Lycopersicon esculentum, leaf spray 100 ppm
[8] = test plant Tomato, Lycopersicon esculentum, leaf spray 1000 ppm
[9] = test plant Tomato, Lycopersicon esculentum, leaf spray 2500 ppm

| Structure (SMILES) | nematicidal activity on the basis of the percentage of gall formation (100% = no galls) (Meloidogyne incognita [1]) | nematicidal activity on the basis of the percentage of gall formation (100% = no galls) (Meloidogyne incognita [2]; [4]) | nematicidal activity on the basis of the percentage of gall formation (100% = no galls) (Meloidogyne incognita [2]; [5]) | nematicidal activity on the basis of the percentage of gall formation (100% = no galls) (Meloidogyne incognita [2]; [6]) | nematicidal activity on the basis of the percentage of gall formation (100% = no galls) (Meloidogyne incognita [2]; [7]) | nematicidal activity on the basis of the percentage of gall formation (100% = no galls) (Meloidogyne incognita [2]; [8]) | nematicidal activity on the basis of the percentage of gall formation (100% = no galls) (Meloidogyne incognita [2]; [9]) | nematicidal activity on the basis of the percentage of gall formation (100% = no galls) (Meloidogyne incognita [3]; application rate 2 ppm) | nematicidal activity on the basis of the percentage of gall formation (100% = no galls) (Meloidogyne incognita [3]; application rate 8 ppm) | nematicidal activity on the basis of the percentage of gall formation (100% = no galls) (Meloidogyne incognita [3]; application rate 1 ppm) | nematicidal activity on the basis of the percentage of gall formation (100% = no galls) (Meloidogyne incognita [3]; application rate 4 ppm) |
| --- | --- | --- | --- | --- | --- | --- | --- | --- | --- | --- | --- |
| O=C(NS(=O)(=O)c1cc(C(F)(F)F)ccc1Cl)c1cn2cc(C(F)(F)F)sc2n1 [Example I-1-4] | 100% | 0% | 20% | 75% | 25% | 35% | 98% | 97% |  |  |  |
| Cc1c(C(F)(F)F)sc2nc(C(=O)NS(=O)(=O)c3c(Cl)cccc3Cl)cn12 [Example I-1-158] | 90% | 15% | 75% | 80% | 0% | 0% | 50% | 98% |  |  |  |
| COc1ccc(Cl)c(S(=O)(=O)NC(=O)c2cn3c(C)c(C(F)(F)F)sc3n2)c1 [Example I-1-159] | 100% | 25% | 60% | 95% | 0% | 75% | 95% | 95% |  |  |  |
| Cc1c(C(F)(F)C(F)(F)F)sc2nc(C(=O)NS(=O)(=O)c3c(Cl)cccc3Cl)cn12 [Example I-1-254] | 100% |  |  |  |  |  |  |  | 85% |  |  |
| Cc1c(C(F)(F)C(F)(F)F)sc2nc(C(=O)NS(=O)(=O)c3ccccc3Cl)cn12 [Example I-1-255] | 100% |  |  |  |  |  |  |  | 100% |  |  |
| CCOc1ccc(Cl)c(S(=O)(=O)NC(=O)c2cn3cc(C(F)(F)F)sc3n2)c1 [Example I-1-286] | 100% |  |  |  |  |  |  |  |  | 85% |  |
| Cc1c(C(F)(F)F)sc2nc(C(=O)NS(=O)(=O)c3cc(C(F)(F)F)ccc3Cl)cn12 [Example I-1-289] | 100% |  |  |  |  |  |  |  |  |  | 85% |
| Cc1ccc(C)c(S(=O)(=O)NC(=O)c2cn3c(C)c(C(F)(F)F)sc3n2)c1 [Example I-1-291] | 100% |  |  |  |  |  |  |  |  |  | 85% |
